Like-named read-outs stand apart in the source and are kept apart here.
Target: CFTR (Homo sapiens, UniProt P13569)
Experiment: Membrane Potential Dye, Enteroid Assay B
Type: cell-based
In short: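 Human intestinal enteroid cells exposed to compound 18-24 h at 37 °C, then loaded with methyl oxonol membrane-potential dye plus CaCC blockers. Chloride transport triggered in chloride-free buffer with 10 μM forskolin, 100 μM IBMX, 300 nM Compound III; fluorescence read 15 min, expressed as % of triple-corrector/potentiator combination control.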

[1] = Table 10, read-out: Ent. B EC50

Sequence of CFTR (P13569 with tags, fused parts or gaps DEL508-508): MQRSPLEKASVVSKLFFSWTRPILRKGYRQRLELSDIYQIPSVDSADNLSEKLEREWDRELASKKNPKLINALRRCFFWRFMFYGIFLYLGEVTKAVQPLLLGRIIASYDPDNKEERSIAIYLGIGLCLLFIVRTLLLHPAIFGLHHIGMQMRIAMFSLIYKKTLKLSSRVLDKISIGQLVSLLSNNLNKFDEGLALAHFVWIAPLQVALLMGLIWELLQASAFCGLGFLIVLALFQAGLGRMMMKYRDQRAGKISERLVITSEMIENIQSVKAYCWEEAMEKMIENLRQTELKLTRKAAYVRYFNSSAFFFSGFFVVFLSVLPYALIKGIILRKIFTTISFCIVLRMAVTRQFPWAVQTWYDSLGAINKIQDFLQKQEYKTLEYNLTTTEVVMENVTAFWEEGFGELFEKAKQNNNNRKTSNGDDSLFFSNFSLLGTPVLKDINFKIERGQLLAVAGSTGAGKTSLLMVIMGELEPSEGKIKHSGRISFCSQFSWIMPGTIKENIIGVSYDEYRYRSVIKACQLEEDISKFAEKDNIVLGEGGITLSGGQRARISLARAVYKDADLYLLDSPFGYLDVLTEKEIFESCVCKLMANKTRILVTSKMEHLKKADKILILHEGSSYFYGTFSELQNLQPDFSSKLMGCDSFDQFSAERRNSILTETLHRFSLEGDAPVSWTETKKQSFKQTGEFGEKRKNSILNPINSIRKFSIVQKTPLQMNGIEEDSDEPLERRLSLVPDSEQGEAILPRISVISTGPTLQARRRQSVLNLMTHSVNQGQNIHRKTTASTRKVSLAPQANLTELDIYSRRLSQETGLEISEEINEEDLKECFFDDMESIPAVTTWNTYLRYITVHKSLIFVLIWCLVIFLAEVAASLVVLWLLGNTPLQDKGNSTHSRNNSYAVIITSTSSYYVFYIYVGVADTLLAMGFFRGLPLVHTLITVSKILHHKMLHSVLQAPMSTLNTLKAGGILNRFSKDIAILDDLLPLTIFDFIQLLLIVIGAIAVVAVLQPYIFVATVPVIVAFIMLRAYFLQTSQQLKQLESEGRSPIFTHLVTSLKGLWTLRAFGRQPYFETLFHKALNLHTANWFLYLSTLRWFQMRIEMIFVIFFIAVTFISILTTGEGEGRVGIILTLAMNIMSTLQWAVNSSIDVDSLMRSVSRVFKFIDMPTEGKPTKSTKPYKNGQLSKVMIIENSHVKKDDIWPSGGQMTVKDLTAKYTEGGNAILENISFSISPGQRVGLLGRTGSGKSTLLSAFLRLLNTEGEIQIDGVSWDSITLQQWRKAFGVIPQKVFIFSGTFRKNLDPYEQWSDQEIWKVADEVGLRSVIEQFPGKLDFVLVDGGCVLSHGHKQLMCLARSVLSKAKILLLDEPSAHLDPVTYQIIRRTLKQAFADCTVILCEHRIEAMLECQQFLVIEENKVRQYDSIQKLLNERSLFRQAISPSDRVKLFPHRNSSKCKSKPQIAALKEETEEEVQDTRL

Cc1cccc(C)c1-c1cc2nc(n1)NS(=O)(=O)c1cccc(c1)C(=O)N([C@H]1C[C@@H](CN(C)C)C1)[C@H](CC(C)C)CO2 (single isomer, unassigned) [Compound 106]
Ent. B Max Activity (%) (Table 9): +++ (+++ is >60%) | EC50 (Table 9, read-out: Ent. B EC50): < 1 µM

CCC(=O)N1CCC2(CC1)CC(N1C(=O)c3cccc(c3)S(=O)(=O)Nc3nc(cc(-c4c(C)cccc4C)n3)OC[C@H]1CC(C)(C)C(F)(F)F)C2 [Compound 417]
Ent. B Max Activity (%) (Table 10): +++ (+++ is >60%) | EC50 [1]: < 1 µM

Cc1cccc(C)c1-c1cc2nc(n1)NS(=O)(=O)c1cccc(c1)C(=O)N(C1CC3(C1)CC(C)(O)C3)[C@H](CC(C)(C)C)CO2 (single isomer, unassigned) [Compound 120]
Ent. B Max Activity (%) (Table 10): ++ (++ is 30-60%) | EC50 [1]: < 1 µM

Cc1cccc(C)c1-c1cc2nc(n1)NS(=O)(=O)c1cccc(c1)C(=O)N(C1CC3(CC(N)C3)C1)[C@H](CC(C)C)CO2 (stereo in doubt) [Compound 291]
Ent. B Max Activity (%) (Table 9): +++ (+++ is >60%) | EC50 (Table 9, read-out: Ent. B EC50): < 1 µM

Cc1cccc(C)c1-c1cc2nc(n1)NS(=O)(=O)c1cccc(c1)C(=O)N(C1CS(=O)(=O)C1)[C@H](CC(C)(C)C)CO2 [Compound 222]
Ent. B Max Activity (%) (Table 10): +++ (+++ is >60%) | EC50 [1]: < 1 µM

Cc1cccc(C)c1-c1cc2nc(n1)NS(=O)(=O)c1cccc(c1)C(=O)N(C1CCCCC1)[C@H](CC(C)(C)C)CO2 [Compound 208]
Ent. B Max Activity (%) (Table 10): + (+ is <300%)

Cc1cccc(C)c1-c1cc2nc(n1)NS(=O)(=O)c1cccc(c1)C(=O)N(C1CC(NCCC(C)C)C1)[C@H](CC(C)C)CO2 (some centres unmarked) [Compound 377]
Ent. B Max Activity (%) (Table 9): +++ (+++ is >60%) | EC50 (Table 9, read-out: Ent. B EC50): < 1 µM

Cc1cccc(C)c1-c1cc2nc(n1)NS(=O)(=O)c1cccc(c1)C(=O)N([C@H]1C[C@@H](N3CCOC3=O)C1)[C@H](CC(C)(C)C)CO2 (single isomer, unassigned) [Compound 167]
Ent. B Max Activity (%) (Table 10): ++ (++ is 30-60%) | EC50 [1]: < 1 µM

Cc1cccc(C)c1-c1cc2nc(n1)NS(=O)(=O)c1cccc(c1)C(=O)N(C1CC(N(C)[C@H](C)C(F)(F)F)C1)[C@H](CC(C)C)CO2 (stereo partly drawn) [Compound 68, (11R)-6-(2,6-Dimethylphenyl)-11-isobutyl-12-[3-[methyl-[(1R)-2,2,2-trifluoro-1-methyl-ethyl]amino]cyclobutyl]-2,2-dioxo-9-oxa-2λ^6-thia-3,5,12,19-tetrazatricyclo[12.3.1.14,8]nonadeca-1(18),4(19),5,7,14,16-hexaen-13-one]
Ent. B Max Activity (%) (Table 9): ++ (++ is 30-60%) | EC50 (Table 9, read-out: Ent. B EC50): < 1 µM

Cc1cccc(C)c1-c1cc2nc(n1)NS(=O)(=O)c1cccc(c1)C(=O)N(C1CC3(CC(O)C3)C1)[C@H](CC(C)(C)C)CO2 (single isomer, unassigned) [Compound 122]
Ent. B Max Activity (%) (Table 10): +++ (+++ is >60%) | EC50 [1]: < 1 µM

[H][C@]1(N2C(=O)c3cccc(c3)S(=O)(=O)Nc3nc(cc(-c4c(C)cccc4C)n3)OC[C@H]2CC2(C(F)(F)F)CC2)C[C@@]2(C[C@H](N(C)C)C2)C1 (some centres unmarked) [Compound 298]
Ent. B Max Activity (%): +++ (+++ is >60%) | EC50 (read-out: Ent. B EC50): < 1 µM

CCCN1CCC2(CC1)CC(N1C(=O)c3cccc(c3)S(=O)(=O)Nc3nc(cc(-c4c(C)cccc4C)n3)OC[C@H]1CC(C)C)C2 [Compound 303]
Ent. B Max Activity (%): +++ (+++ is >60%) | EC50 (read-out: Ent. B EC50): < 1 µM

Cc1cccc(C)c1-c1cc2nc(n1)NS(=O)(=O)c1cccc(c1)C(=O)N([C@@H]1CC[C@@H]1C1CC1)[C@H](CC(C)(C)C)CO2 (racemic) [Compound 149, (11R)-12-(2-Cyclopropylcyclobutyl)-6-(2,6-dimethylphenyl)-11-(2,2-dimethylpropyl)-2,2-dioxo-9-oxa-2λ^6-thia-3,5,12,19-tetrazatricyclo[12.3.1.14,8]nonadeca-1(18),4(19),5,7,14,16-hexaen-13-one]
Ent. B Max Activity (%) (Table 10): +++ (+++ is >60%) | EC50 [1]: < 1 µM

Cc1cccc(C)c1-c1cc2nc(n1)NS(=O)(=O)c1cccc(c1)C(=O)N(C1CC(C)(OC(F)(F)F)C1)[C@H](CC(C)C)CO2 (stereo partly drawn) [Compound 49, (11R)-6-(2,6-dimethylphenyl)-11-isobutyl-12-[3-methyl-3-(trifluoromethoxy)cyclobutyl]-2,2-dioxo-9-oxa-2λ^6-thia-3,5,12,19-tetrazatricyclo[12.3.1.14,8]nonadeca-1(18),4(19),5,7,14,16-hexaen-13-one]
Ent. B Max Activity (%) (Table 10): ++ (++ is 30-60%) | EC50 [1]: < 1 µM

COC(=O)N(C)C1(C)CC(N2C(=O)c3cccc(c3)S(=O)(=O)Nc3nc(cc(-c4c(C)cccc4C)n3)OC[C@H]2CC(C)(C)C)C1 (stereo in doubt) [Compound 241]
Ent. B Max Activity (%) (Table 10): ++ (++ is 30-60%) | EC50 [1]: < 1 µM

CCC(O)(CC)[C@H]1CC2(C[C@H](N3C(=O)c4cccc(c4)S(=O)(=O)Nc4nc(cc(-c5c(C)cccc5C)n4)OC[C@H]3CC(C)(C)C)C2)C1 (some centres unmarked) [Compound 409]
Ent. B Max Activity (%) (Table 10): +++ (+++ is >60%) | EC50 [1]: < 1 µM

Cc1cccc(C)c1-c1cc2nc(n1)NS(=O)(=O)c1cccc(c1)C(=O)N([C@H]1C[C@]3(C[C@H](NC(C)C)C3)C1)[C@H](CC1(C(F)(F)F)CC1)CO2 (some centres unmarked) [Compound 265]
Ent. B Max Activity (%) (Table 9): +++ (+++ is >60%) | EC50 (Table 9, read-out: Ent. B EC50): < 1 µM

Cc1cccc(C)c1-c1cc2nc(n1)NS(=O)(=O)c1cccc(c1)C(=O)N([C@H]1C[C@@H](NC(=O)OC(C)C)C1)[C@H](CC(C)C)CO2 (single isomer, unassigned) [Compound 63]
Ent. B Max Activity (%): +++ (+++ is >60%) | EC50 (read-out: Ent. B EC50): < 1 µM

Cc1cccc(C)c1-c1cc2nc(n1)NS(=O)(=O)c1cccc(c1)C(=O)N(C1CC(CO)(CO)C1)[C@H](CC(C)(C)C)CO2 [Compound 158, (11R)-12-[3,3-Bis(hydroxymethyl)cyclobutyl]-6-(2,6-dimethylphenyl)-11-(2,2-dimethylpropyl)-9-oxa-2λ^6-thia-3,5,12,19-tetraazatricyclo[12.3.1.14,8]nonadeca-1(17),4(19),5,7,14(18),15-hexaene-2,2,13-trione]
Ent. B Max Activity (%) (Table 10): +++ (+++ is >60%) | EC50 [1]: 1 to 3 µM

CC(=O)N[C@H]1C[C@@]2(C1)C[C@H](N1C(=O)c3cccc(c3)S(=O)(=O)Nc3nc(cc(-c4c(C)cccc4C)n3)OC[C@H]1CC1(C(F)(F)F)CC1)C2 (stereo partly drawn) [Compound 85, N-((2R,4r,6R)-6-((R)-1^6-(2,6-Dimethylphenyl)-3,3-dioxido-5-oxo-7-((1-(trifluoromethyl)cyclopropyl)methyl)-9-oxa-3-thia-2,6-diaza-1(2,4)-pyrimidina-4(1,3)-benzenacyclononaphane-6-yl)spiro[3.3]heptan-2-yl)acetamide]
Ent. B Max Activity (%) (Table 9): +++ (+++ is >60%) | EC50 (Table 9, read-out: Ent. B EC50): < 1 µM

Cc1cccc(C)c1-c1cc2nc(n1)NS(=O)(=O)c1cccc(c1)C(=O)N(C1CC(N(C)C3CCC3)C1)[C@H](CC(C)C)CO2 (some centres unmarked) [Compound 376]
Ent. B Max Activity (%) (Table 9): +++ (+++ is >60%) | EC50 (Table 9, read-out: Ent. B EC50): < 1 µM

Source: patent US20230382925A1, “MODULATORS OF CYSTIC FIBROSIS TRANSMEMBRANE CONDUCTANCE REGULATOR” (VERTEX PHARMACEUTICALS INCORPORATED, priority 2020, published 2023)
